# Laboratory results published in patent US20250268165A1, “METHOD FOR PRODUCING HAPLOID AND DOUBLED HAPLOID SUNFLOWER PLANTS BY MICROSPORE CULTURE” (KWS SAAT SE & Co. KGaA, priority 2022, published 2025).
# Experiments:
# [1] = tested on: isolated microspores of Helianthus annuus, 007 Genotype; assay: Callus induction from isolated microspores with different 2,4-D concentrations in induction media II (Example 4.3); format: cell-based
# Description: Top row: arrows indicate where embryos are located (magnification). Bottom row: corresponding petri dish.
# (§1) Solution of microspore density of 80.000 microspores per ml are centrifuged for 10 min at 200 g and supernatant is decanted. Induction media I (see, for example, Table 3.4) is added to the remaining microspores and divided into plastic tubes. Histone deacetylase inhibitor (HDACi) and colchicine are added to each tube and microspore solutions are stored at 26° C. for 2 days. If the HDACi trichostatin A (TSA) is used, it is dissolved in dimethylsulfoxide (DMSO) to a final concentration of between 1M and 10 μM, preferably 100 nM to 10 μM, more preferably 1 μM to 10 μM, depending on the genotype and the plant donor sources. If colchicine is used, it is dissolved in water to a final concentration of between 1 mg and 500 mg, preferably 10 mg to 200 mg, more preferably 50 mg to 100 mg, depending on the genotype and the plant donor sources. The HDACi and the chromosome doubling agent are removed by centrifugation for 10 min, 200 g. Supernatant is decanted, corresponding amount of induction media I is added, and microspores resuspended. Tubes are incubated at 26° C. in the dark for several days.
# (§2) Thereafter, microspore solutions are centrifuged for 10 min at 200 g and supernatant is decanted. Corresponding amounts of induction media II with different 2,4-D concentrations is added according to the treatments (see, for example, Table 3.5) and the microspore solution is plated in petri dishes and placed at 26° C. for callus induction.
# Depending on tissue culture length, and the tissue culture system, at least one antibiotic can be added to Incubation Medium II, such as carbenicillin, penicillin or timentin. One to two weeks after isolation, the first microspore nuclear division can be observed (DAPI staining). Callus structures can be seen by eye after approximately three weeks after isolation.
# [2] = tested on: sunflower microspore derived calluses; assay: Plant regeneration: shoots regenerated per callus unit after callus induction with auxin analogs (Example 4.2); format: cell-based, Helianthus annuus; settings: auxin analog used during callus induction (FIG. 8B)
# Description: as §2, with “auxin and auxin analogs” for “2,4-D concentrations”, “3.3)” for “3.5)”, “[…]” for “26° C.”, “induction. Abbreviations used in Table 3.3: 3.5ME=3,5-dimethylphenoxyacetic acid; PHAA=Phenoxyacetic acid; 4-CPA or 4CIPA=p-Chlorophenoxyacetic acid.” for “induction.”
# Callus is removed from liquid media and transferred to regeneration media (see, for example, Table 4) with 1 mg/L BAP and grown at 26° C. in the light until plant regeneration is observed, approximately 2 weeks after transfer (FIG. 4)
# [3] = tested on: isolated microspores of Helianthus annuus; assay: Callus induction from isolated microspores with auxin analogs in induction media II (Example 4.2); format: cell-based; settings: 1 mg/L (FIG. 8A), control with 2,4-D
# Description: as §1, with “example, Table 3.2) is added” for “example, Table 3.4) is added”, “of between 1 nM and 10” for “of between 1M and 10”, “mg and 300 mg, preferably” for “mg and 500 mg, preferably”, “donor sources. Another antimitotic agent, e.g., oryzalin and/or trifluralin, or any other chromosome doubling agent may be used as well. The HDACi” for “donor sources. The HDACi”, “microspores resuspended. Usually, an auxin or a (synthetic) analog thereof will usually be applied in a concentration of about 0.05 to about 3 mg/L. Tubes are” for “microspores resuspended. Tubes are”, “several days. […]” for “several days.”
# [4] = tested on: microspore derived sunflower shoots; assay: Plant rooting of microspore derived shoots in rooting media (Example 5.2); format: in vivo, Helianthus annuus; settings: rooting media (MS), 24° C. in the light, approximately 2 weeks after transfer; auxin 0.5 mg/L
# Description: Shoots are transferred to growing/rooting medium (see, for example, Table 5) with or without one auxin (in the example PAA (phenylacetic acid) or IBA were used) and grown at 24° C. in the light until root formation is observed, approximately 2 weeks after transfer (FIG. 10).
structure (smiles),measurement,setting,value
"O=C(O)COc1ccc(Cl)cc1Cl [2,4-D, 2,4-Dichlorophenoxyacetic acid]",Generation of microspore-derived embryos,"[1]; 0.5, 0.2, 0.1 mg/L 2,4-D and Ctrl 1 mg/L 2,4-D",observed in all treatments
same,Induction of microspore division and callus formation,"[1]; 0.5, 0.2, 0.1 mg/L 2,4-D and Ctrl 1 mg/L in induction media II, 007 Genotype (FIG. 9)",able to induce microspore division and callus formation
same,Callus formation of the treatments compared with control,"[1]; 0.5, 0.2, 0.1 mg/L 2,4-D versus Ctrl 1 mg/L 2,4-D",did not decreased or enhanced callus formation
"Cc1cc(C)cc(OCC(=O)O)c1 [3.5ME, 3,5-dimethylphenoxyacetic acid]",Regeneration: number of shoots regenerated per callus unit in comparison to control,[2],tendency to increase regeneration
"O=C(O)COc1ccc(Cl)cc1 [4CIPA/4-CPA, p-Chlorophenoxyacetic acid]",Callus quantity (callus number) in comparison to control,[3],tendency to increase callus quantity
same,Regeneration: number of shoots regenerated per callus unit in comparison to control,[2],tendency to increase regeneration
"O=C(O)CCCc1c[nH]c2ccccc12 [IBA, indole-3-butyric acid]",Cultivated plants showing root formation,[4],68%
